Source: ChEMBL document CHEMBL6114977, “Identification and optimization of a small molecule inhibitor of the ovarian tumor protease of the Crimean-Congo hemorrhagic fever virus” (Bioorg Med Chem, 2025)
Activity calls are given as the source filed them. The rule behind the calls is not given here.

Tests used:
[1] = biological target: T1, RNA-directed RNA polymerase L (Crimean-Congo hemorrhagic fever virus, UniProt Q6TQR6); assay: (§1) Inhibition of CCHF OTU (ovarian tumor) protease (1 to 169 residues) extracted from Escherichia coli BL21 (DE3) cells using ubiquitin rhodamine 110 as substrate incubated for 30 mins by fluorescence based SynergyH1 plate reader analysis
T1 sequence (Q6TQR6 whole entry, the tested form may be a part): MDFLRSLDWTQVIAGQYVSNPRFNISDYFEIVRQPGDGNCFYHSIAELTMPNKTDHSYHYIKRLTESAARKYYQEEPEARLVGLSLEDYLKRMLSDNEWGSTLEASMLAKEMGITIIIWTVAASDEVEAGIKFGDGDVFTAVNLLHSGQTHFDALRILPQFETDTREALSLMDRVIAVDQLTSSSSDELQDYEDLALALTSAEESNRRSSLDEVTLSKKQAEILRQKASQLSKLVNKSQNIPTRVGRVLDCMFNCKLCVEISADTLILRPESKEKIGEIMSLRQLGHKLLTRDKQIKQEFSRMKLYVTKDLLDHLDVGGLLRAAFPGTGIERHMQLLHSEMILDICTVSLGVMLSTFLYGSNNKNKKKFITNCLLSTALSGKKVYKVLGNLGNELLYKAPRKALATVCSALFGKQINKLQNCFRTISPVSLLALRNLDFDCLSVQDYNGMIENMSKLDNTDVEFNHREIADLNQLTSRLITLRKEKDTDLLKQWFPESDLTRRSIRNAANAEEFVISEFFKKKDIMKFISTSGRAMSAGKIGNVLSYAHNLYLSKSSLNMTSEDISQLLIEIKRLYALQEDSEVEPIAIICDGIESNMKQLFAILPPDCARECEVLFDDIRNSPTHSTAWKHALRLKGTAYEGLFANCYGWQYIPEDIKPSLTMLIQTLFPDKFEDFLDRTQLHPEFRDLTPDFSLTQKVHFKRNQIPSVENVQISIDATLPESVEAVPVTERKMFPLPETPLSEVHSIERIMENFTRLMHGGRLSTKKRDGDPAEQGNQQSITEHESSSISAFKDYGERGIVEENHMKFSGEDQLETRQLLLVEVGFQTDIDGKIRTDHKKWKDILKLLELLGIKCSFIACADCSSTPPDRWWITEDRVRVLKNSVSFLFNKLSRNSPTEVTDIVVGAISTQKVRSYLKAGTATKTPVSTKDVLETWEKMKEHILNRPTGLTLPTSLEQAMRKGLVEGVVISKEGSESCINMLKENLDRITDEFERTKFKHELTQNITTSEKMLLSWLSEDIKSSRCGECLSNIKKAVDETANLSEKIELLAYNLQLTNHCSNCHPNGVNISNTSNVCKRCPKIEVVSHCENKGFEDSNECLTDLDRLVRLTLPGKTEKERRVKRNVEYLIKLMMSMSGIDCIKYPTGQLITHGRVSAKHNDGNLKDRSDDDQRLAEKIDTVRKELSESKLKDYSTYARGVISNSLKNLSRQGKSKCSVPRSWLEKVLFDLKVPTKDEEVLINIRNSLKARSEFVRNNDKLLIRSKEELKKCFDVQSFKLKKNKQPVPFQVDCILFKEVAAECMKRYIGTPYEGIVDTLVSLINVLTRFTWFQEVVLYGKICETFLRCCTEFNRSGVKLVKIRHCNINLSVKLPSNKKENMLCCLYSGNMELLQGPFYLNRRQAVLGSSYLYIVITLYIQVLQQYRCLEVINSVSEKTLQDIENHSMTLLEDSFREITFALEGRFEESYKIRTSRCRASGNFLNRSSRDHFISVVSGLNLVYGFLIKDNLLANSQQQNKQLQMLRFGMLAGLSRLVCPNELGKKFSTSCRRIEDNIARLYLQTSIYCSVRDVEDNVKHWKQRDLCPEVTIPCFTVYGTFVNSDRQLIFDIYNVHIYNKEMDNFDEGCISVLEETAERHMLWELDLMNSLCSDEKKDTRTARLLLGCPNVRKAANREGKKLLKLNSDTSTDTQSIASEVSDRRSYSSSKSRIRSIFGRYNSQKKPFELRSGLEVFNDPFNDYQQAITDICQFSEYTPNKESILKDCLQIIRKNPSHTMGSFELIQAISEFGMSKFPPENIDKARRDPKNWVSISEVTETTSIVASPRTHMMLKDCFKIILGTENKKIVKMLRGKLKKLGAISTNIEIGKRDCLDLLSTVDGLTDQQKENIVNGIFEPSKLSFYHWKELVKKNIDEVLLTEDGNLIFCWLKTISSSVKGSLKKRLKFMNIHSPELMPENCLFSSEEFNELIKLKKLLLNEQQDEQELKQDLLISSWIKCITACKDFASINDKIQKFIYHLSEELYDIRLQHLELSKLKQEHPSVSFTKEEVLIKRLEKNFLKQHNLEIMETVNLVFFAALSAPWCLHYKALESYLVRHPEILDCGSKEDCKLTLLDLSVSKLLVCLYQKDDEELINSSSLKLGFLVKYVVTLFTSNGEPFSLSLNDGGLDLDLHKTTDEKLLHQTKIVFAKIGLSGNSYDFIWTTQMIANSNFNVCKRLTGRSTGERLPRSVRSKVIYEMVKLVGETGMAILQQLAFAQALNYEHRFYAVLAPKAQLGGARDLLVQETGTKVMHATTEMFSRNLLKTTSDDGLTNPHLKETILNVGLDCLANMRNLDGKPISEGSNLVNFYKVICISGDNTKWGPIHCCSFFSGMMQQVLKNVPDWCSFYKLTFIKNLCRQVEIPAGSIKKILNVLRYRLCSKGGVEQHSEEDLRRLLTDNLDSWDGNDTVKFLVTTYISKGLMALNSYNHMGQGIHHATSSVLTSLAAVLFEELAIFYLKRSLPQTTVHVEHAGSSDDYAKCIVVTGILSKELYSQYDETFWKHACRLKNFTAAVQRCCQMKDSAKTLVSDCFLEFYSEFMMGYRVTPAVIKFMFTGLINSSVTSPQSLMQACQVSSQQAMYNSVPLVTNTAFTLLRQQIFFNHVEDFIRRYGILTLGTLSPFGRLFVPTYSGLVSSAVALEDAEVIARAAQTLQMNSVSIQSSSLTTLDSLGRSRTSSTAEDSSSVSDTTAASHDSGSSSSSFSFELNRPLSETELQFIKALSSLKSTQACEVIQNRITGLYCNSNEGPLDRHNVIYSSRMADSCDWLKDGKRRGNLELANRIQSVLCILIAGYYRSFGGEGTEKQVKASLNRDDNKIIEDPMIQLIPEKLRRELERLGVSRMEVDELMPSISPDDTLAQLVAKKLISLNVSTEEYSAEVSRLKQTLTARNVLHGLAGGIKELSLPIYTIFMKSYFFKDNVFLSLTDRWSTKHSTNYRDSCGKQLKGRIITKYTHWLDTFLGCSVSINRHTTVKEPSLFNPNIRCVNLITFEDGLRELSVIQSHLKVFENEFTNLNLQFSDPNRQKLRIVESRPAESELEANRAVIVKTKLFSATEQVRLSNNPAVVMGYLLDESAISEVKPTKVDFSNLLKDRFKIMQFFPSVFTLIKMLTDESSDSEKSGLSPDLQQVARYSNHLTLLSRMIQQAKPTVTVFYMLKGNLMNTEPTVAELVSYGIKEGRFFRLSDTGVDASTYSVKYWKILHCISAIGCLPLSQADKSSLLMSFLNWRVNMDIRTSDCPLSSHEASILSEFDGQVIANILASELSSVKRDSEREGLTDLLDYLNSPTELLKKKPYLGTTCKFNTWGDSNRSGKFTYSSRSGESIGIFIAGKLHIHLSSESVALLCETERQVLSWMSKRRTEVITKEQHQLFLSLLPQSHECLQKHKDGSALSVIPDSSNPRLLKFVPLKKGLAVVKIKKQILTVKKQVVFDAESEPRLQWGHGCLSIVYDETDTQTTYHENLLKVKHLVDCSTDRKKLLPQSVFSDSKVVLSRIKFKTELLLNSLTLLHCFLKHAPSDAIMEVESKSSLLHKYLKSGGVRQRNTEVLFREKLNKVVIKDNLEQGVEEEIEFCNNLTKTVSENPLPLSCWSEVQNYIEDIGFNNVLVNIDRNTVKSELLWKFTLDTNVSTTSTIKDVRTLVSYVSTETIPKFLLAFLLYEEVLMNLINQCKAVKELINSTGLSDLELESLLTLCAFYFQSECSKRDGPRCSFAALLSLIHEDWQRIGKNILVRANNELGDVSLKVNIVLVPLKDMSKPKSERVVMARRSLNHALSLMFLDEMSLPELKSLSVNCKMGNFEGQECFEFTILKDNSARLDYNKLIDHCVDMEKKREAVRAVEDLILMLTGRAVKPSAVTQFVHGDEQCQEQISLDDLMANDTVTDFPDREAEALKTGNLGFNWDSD

[2] = biological target: T1, RNA-directed RNA polymerase L; assay: Inhibition of CCHF OTU (ovarian tumor) protease (1 to 169 residues) extracted from Escherichia coli BL21 (DE3) cells assessed as inhibition constant by fluorescence based SynergyH1 plate reader analysis
[3] = biological target: Ubiquitin carboxyl-terminal hydrolase 7 (Homo sapiens) (UniProt Q93009); assay: Inhibition of human USP7 using ubiquitin rhodamine 110 as substrate at 50 uM incubated for 30 mins by fluorescence based SynergyH1 plate reader analysis
Sequence of Ubiquitin carboxyl-terminal hydrolase 7 (Homo sapiens) (Q93009 whole entry, looked up): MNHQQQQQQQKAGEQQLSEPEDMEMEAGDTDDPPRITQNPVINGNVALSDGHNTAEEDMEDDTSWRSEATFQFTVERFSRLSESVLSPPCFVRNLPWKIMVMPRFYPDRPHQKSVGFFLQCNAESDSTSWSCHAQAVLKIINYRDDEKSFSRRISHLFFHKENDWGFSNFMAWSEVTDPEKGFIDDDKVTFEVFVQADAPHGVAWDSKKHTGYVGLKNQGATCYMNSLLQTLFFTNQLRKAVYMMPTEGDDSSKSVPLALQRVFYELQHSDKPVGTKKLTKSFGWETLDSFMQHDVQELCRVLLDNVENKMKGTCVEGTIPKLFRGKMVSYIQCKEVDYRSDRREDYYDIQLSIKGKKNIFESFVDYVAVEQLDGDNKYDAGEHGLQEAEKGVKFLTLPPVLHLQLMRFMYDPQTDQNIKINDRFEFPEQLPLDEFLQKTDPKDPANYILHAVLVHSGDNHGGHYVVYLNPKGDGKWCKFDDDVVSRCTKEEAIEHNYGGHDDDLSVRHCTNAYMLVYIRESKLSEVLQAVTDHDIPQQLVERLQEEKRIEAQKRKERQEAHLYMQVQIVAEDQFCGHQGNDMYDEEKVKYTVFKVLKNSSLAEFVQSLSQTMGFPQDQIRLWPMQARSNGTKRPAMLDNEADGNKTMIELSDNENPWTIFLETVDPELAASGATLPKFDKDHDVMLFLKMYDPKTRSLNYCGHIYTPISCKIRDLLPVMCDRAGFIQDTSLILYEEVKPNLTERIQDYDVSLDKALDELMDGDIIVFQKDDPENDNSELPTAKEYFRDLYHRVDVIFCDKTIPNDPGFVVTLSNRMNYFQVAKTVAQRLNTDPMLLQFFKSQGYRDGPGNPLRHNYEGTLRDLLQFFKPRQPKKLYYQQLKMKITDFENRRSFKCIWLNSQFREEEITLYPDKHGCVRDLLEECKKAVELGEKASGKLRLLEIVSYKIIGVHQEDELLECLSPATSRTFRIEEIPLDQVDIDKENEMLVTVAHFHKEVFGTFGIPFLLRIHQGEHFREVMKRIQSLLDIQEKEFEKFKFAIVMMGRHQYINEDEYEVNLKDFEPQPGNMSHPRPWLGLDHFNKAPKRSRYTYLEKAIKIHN

[4] = biological target: RNA-directed RNA polymerase L (Crimean-Congo hemorrhagic fever virus) (UniProt Q6TQR6); assay: as §1
[5] = biological target: T2, Ubiquitin carboxyl-terminal hydrolase isozyme L5 (Homo sapiens) (UniProt Q9Y5K5); assay: Inhibition of human UCHL5 using ubiquitin rhodamine 110 as substrate at 50 uM incubated for 30 mins by fluorescence based SynergyH1 plate reader analysis
T2 sequence (whole entry): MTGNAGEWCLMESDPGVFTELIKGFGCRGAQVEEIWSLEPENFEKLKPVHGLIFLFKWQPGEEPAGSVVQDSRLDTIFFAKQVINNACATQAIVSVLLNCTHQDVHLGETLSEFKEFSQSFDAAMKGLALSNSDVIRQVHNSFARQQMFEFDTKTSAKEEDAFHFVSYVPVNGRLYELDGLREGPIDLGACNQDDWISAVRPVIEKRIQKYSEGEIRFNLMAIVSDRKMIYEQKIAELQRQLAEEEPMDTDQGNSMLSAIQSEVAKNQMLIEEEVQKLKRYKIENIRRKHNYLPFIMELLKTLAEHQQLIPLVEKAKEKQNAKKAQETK

[6] = biological target: T3, OTU domain-containing protein 7B (Homo sapiens) (UniProt Q6GQQ9); assay: Inhibition of human cezanne using ubiquitin rhodamine 110 as substrate at 50 uM incubated for 30 mins by fluorescence based SynergyH1 plate reader analysis
T3 sequence (whole entry): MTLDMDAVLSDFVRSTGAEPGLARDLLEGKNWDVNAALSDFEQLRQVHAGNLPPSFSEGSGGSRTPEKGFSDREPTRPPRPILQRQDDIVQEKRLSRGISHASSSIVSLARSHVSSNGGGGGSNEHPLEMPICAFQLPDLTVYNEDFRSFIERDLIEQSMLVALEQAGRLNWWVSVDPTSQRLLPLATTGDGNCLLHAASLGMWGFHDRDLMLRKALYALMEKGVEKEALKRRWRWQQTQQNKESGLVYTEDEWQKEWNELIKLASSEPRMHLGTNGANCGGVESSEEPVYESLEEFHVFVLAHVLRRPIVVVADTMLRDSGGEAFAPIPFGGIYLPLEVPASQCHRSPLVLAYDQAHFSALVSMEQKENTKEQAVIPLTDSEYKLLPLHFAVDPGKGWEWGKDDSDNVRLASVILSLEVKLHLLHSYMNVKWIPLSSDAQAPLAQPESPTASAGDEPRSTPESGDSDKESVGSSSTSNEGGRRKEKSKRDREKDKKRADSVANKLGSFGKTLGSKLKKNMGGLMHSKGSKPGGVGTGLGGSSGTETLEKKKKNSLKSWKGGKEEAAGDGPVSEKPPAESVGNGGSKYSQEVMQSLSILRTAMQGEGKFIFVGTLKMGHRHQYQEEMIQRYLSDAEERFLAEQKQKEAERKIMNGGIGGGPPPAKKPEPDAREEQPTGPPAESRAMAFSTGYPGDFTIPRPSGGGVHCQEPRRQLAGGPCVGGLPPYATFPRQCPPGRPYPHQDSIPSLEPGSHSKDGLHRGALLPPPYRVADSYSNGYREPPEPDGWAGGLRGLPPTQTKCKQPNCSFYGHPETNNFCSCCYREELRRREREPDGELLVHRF

[7] = biological target: T4, OTU domain-containing protein 1 (Homo sapiens) (UniProt Q5VV17); assay: Inhibition of human OTUD1 using ubiquitin rhodamine 110 as substrate at 50 uM incubated for 30 mins by fluorescence based SynergyH1 plate reader analysis
T4 sequence (whole entry): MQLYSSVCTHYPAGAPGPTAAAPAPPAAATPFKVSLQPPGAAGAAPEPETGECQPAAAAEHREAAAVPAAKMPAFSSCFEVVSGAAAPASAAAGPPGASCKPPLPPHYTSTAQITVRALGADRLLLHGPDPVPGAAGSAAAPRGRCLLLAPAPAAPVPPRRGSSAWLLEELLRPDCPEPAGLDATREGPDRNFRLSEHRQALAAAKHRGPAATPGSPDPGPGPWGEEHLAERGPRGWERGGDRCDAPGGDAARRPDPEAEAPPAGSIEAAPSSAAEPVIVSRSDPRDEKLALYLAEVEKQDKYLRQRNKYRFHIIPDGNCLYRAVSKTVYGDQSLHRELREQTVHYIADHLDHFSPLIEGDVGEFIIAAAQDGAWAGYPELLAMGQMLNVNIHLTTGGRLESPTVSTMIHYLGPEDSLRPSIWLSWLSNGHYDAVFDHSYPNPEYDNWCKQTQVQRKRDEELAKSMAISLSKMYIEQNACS

[8] = system: Fc1cc(Nc2nc(-c3ccc(C(F)(F)F)cc3)cs2)ccc1-c1nnn[nH]1; assay: Competitive inhibition of CCHF OTU (ovarian tumor) protease (1 to 169 residues) extracted from Escherichia coli BL21 (DE3) cells using ubiquitin rhodamine 110 as substrate assessed as Km by Michaelis-Menten analysis (reference value: 31.6 nM); conditions: Crimean-Congo hemorrhagic fever virus

Compound | IC50 [1] [µM] | Ki [2] [µM] | other results
Cc1cc(NS(=O)(=O)c2ccc(Nc3nc(-c4ccccn4)cs3)cc2)no1 | > 100 | – | –
FC(F)(F)c1ccc(-c2coc(Nc3ccc(-c4nnn[nH]4)cc3)n2)cc1 | 18.2 | 11.1 | inhibition [3]: Active
Cc1cc(NS(=O)(=O)c2ccc(Nc3nc(-c4cccnc4)cs3)cc2)no1 | > 100 | – | –
Cc1cc(NS(=O)(=O)c2ccc(Nc3nc(-c4ccccc4F)cs3)cc2)no1 | > 100 | – | –
Cc1cc(NS(=O)(=O)c2ccc(Nc3nc(-c4cccc(C(F)(F)F)c4)cs3)cc2)no1 | > 100 | – | –
Cc1cc(NS(=O)(=O)c2ccc(Nc3nc(-c4ccc(O)cc4O)cs3)cc2)no1 | 42.3 | 25.9 | inhibition [4]: Dose-dependent-effect
FC(F)(F)c1ccc(-c2csc(Nc3ccc(-c4nnn[nH]4)c(Cl)c3)n2)cc1 | 11.9 | 7.3 | inhibition [5]: Active; inhibition [6]: Active; inhibition [7]: Active; inhibition [3]: Active
Cc1cc(NS(=O)(=O)c2ccc(Nc3nc(-c4ccc(Br)cc4)cs3)cc2)no1 | 54.3 | 33.2 | –
FC(F)(F)c1ccc(-c2csc(Nc3ccc(-n4cnnn4)cc3)n2)cc1 | > 100 | – | –
O=C(O)c1ccc(Nc2nc(-c3ccc(C(F)(F)F)cc3)cs2)cc1 | > 50 | – | –
FC(F)(F)c1ccc(-c2csc(Nc3ccc(-c4nnn[nH]4)c(C(F)(F)F)c3)n2)cc1 | 12.8 | 7.8 | inhibition [5]: Active; inhibition [6]: Active; inhibition [7]: Active; inhibition [3]: Active
O=S(=O)(O)c1ccc(Nc2nc(-c3ccc(C(F)(F)F)cc3)cs2)cc1 | 41.8 | 25.6 | –
N#Cc1ccc(Nc2nc(-c3ccc(C(F)(F)F)cc3)cs2)cc1 | > 100 | – | –
COc1ccccc1-c1csc(Nc2ccc(S(=O)(=O)Nc3cc(C)on3)cc2)n1 | > 100 | – | –
Cc1cc(NS(=O)(=O)c2ccc(Nc3nc(-c4ccc(OC(F)(F)F)cc4)cs3)cc2)no1 | > 100 | – | –
RNA-directed RNA polymerase L (Crimean-Congo hemorrhagic fever virus), Q6TQR6 | – | – | Km [8]: 0.264 µM
COc1cccc(-c2csc(Nc3ccc(S(=O)(=O)Nc4cc(C)on4)cc3)n2)c1 | > 100 | – | –
FC(F)(F)c1ccc(-c2csc(Nc3ccc(-c4nnn[nH]4)nc3)n2)cc1 | > 100 | – | –
Cc1cc(NS(=O)(=O)c2ccc(Nc3nc(-c4cccc(F)c4)cs3)cc2)no1 | > 100 | – | –
Cc1cc(NS(=O)(=O)c2ccc(Nc3nc(-c4ccccc4Cl)cs3)cc2)no1 | > 100 | – | –

Compound | IC50 [1] [µM] | Ki [2] [µM] | other results
NS(=O)(=O)c1ccc(Nc2nc(-c3ccc(C(F)(F)F)cc3)cs2)cc1 | > 100 | – | –
FC(F)(F)c1ccc(-c2csc(Nc3ccc(-c4nnn[nH]4)cc3)n2)cc1 | 16.7 | 10.2 | inhibition [3]: Active
FC(F)(F)c1ccc(-c2ccnc(Nc3ccc(-c4nnn[nH]4)cc3)n2)cc1 | 38.4 | 23.5 | inhibition [3]: Active
FC(F)(F)c1ccc(-c2csc(Nc3ccc(-c4nnn[nH]4)c4c3CCC4)n2)cc1 | 17.3 | 10.6 | inhibition [3]: Active
Cc1cc(NS(=O)(=O)c2ccc(Nc3nc(-c4ccccc4C(F)(F)F)cs3)cc2)no1 | > 100 | – | –
Cc1cc(NS(=O)(=O)c2ccc(Nc3nc(-c4ccc(Cl)cc4)cs3)cc2)no1 | 62.9 | 38.5 | –
Cc1cc(-c2nnn[nH]2)ccc1Nc1nc(-c2ccc(C(F)(F)F)cc2)cs1 | 19.4 | 11.9 | inhibition [3]: Active
Cc1cc(NS(=O)(=O)c2ccc(Nc3nc(-c4ccc(C#N)cc4)cs3)cc2)no1 | > 100 | – | –
Cc1cc(NS(=O)(=O)c2ccc(Nc3nc(-c4ccccc4)cs3)cc2)no1 | > 100 | – | –
COc1ccc(-c2csc(Nc3ccc(S(=O)(=O)Nc4cc(C)on4)cc3)n2)cc1 | > 100 | – | –
Fc1cc(Nc2nc(-c3ccc(C(F)(F)F)cc3)cs2)ccc1-c1nnn[nH]1 | 10.7 | 6.6 | inhibition [5]: Active; inhibition [6]: Active; inhibition [7]: Active; inhibition [3]: Active
COc1cc(-c2nnn[nH]2)ccc1Nc1nc(-c2ccc(C(F)(F)F)cc2)cs1 | 29.8 | 18.2 | inhibition [3]: Active
Cc1cc(NS(=O)(=O)c2ccc(Nc3nc(-c4ccc(F)cc4)cs3)cc2)no1 | 86 | 52.7 | –
O=C(O)Cc1ccc(Nc2nc(-c3ccc(C(F)(F)F)cc3)cs2)cc1 | > 100 | – | –
Cc1cc(NS(=O)(=O)c2ccc(Nc3nc(-c4ccc(O)cc4)cs3)cc2)no1 | > 100 | – | –
FC(F)(F)c1ccc(-c2csc(Nc3ccc(-c4nnn[nH]4)cn3)n2)cc1 | 18.2 | 11.1 | inhibition [3]: Active
Cc1cc(Nc2nc(-c3ccc(C(F)(F)F)cc3)cs2)ccc1-c1nnn[nH]1 | 20 | 12.2 | –
CN(c1ccc(-c2nnn[nH]2)cc1)c1nc(-c2ccc(C(F)(F)F)cc2)cs1 | 19 | 11.6 | –
Cc1cc(NS(=O)(=O)c2ccc(Nc3nc(-c4ccc(C(F)(F)F)cc4)cs3)cc2)no1 | 51 | 31.2 | –
